Reference: ChEMBL document CHEMBL1201862, “PubChem BioAssay data set” (2004)
Active and inactive are the calls of the source.

Key:
[1] = biological target: Glucose-6-phosphate 1-dehydrogenase (Homo sapiens, UniProt P11413); experiment: inhibition of Homo sapiens G6PD, dose series – biochemical, fluorescence, selectivity assay for P. falciparum G6PD inhibitor project, dose response (AID 504792); format: functional
Protein RecA = biological target: T1, Protein RecA (Mycobacterium tuberculosis, UniProt P9WHJ3); experiment: Fluorescence Cell-Free Homogeneous Dose Retest to Identify Inhibitors of RecA-Intein Splicing Activity. [Related pubchem assays (depositor defined):AID2097, AID2223, AID489010, AID492950]; format: functional
T1 sequence (P9WHJ3 whole entry): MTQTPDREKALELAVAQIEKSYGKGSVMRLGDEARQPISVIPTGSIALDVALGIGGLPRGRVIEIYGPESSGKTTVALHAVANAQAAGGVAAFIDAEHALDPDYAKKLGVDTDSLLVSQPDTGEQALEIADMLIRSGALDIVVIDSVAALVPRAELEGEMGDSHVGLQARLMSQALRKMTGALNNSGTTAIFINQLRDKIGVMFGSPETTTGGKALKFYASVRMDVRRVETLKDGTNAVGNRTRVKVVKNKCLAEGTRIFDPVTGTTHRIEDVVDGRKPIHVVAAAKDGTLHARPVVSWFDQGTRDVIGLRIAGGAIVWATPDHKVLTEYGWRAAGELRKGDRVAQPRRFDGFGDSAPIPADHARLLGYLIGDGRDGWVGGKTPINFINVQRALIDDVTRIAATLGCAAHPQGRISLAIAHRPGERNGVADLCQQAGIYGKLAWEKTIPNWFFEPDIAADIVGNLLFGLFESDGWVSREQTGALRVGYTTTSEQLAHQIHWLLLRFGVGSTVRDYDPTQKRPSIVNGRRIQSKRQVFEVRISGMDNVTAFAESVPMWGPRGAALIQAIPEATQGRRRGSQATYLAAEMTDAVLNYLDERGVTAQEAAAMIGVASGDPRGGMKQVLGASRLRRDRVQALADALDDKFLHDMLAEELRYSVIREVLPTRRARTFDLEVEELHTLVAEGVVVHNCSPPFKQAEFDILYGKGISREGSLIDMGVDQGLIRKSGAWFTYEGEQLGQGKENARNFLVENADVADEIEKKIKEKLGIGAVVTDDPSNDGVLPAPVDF

[2] = biological target: T2, Sentrin-specific protease 6 (Homo sapiens, UniProt Q9GZR1); format: functional;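 further: Luminescence-based dose-response confirmatory assay of SENP6 inhibition, following up an ultra-high-throughput screen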
T2 sequence (Q9GZR1 whole entry): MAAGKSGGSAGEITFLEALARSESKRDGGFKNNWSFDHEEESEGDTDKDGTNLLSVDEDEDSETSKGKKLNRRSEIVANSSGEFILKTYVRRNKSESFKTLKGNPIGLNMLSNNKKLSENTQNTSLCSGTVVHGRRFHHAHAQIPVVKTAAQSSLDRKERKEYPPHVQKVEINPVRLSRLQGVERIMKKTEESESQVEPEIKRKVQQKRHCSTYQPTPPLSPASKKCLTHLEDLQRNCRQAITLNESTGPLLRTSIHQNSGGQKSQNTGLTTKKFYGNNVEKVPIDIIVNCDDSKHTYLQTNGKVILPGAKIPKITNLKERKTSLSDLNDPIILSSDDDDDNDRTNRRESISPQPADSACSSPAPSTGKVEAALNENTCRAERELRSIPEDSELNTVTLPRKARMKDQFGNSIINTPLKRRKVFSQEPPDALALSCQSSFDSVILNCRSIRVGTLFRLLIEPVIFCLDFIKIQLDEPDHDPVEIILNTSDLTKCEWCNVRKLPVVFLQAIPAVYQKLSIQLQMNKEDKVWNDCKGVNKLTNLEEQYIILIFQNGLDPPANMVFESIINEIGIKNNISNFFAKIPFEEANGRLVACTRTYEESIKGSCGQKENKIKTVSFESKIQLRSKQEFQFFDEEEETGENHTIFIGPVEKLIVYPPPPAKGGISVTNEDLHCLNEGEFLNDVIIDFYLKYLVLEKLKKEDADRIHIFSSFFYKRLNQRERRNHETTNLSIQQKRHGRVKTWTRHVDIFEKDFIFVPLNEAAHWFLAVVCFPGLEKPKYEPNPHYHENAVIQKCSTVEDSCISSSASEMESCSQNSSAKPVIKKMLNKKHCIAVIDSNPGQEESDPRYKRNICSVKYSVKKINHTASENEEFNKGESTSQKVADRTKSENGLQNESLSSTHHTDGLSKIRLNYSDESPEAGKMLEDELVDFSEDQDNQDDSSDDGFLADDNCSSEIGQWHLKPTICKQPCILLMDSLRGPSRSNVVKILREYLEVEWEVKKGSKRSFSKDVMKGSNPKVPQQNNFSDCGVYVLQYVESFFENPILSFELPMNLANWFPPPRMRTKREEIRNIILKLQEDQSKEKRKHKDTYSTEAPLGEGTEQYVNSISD

[3] = biological target: T3, Oxysterols receptor LXR-beta (Homo sapiens, UniProt P55055); format: functional, cell-based;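 further: Cell-based luminescence dose-response assay of agonist activity at LXR, run as a confirmatory counterscreen to a daf-12 agonist screen; HEK293 cells with Gal4-LXR fusion and GAL4-driven luciferase reporter; agonist potency from rising luciferase signal of a Gal4-LXR reporter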
T3 sequence (P55055 whole entry): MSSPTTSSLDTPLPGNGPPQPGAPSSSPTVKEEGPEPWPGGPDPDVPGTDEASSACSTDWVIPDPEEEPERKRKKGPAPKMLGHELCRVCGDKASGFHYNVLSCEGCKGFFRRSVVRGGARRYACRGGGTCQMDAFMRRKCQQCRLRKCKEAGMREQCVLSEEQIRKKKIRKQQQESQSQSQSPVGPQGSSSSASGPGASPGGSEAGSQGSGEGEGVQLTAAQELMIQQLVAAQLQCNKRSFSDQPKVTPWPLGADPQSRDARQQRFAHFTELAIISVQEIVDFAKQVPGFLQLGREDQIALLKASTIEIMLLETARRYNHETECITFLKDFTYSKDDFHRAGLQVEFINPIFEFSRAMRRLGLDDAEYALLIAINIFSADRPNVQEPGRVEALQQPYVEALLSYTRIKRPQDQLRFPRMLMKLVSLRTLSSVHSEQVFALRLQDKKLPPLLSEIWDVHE

Paired box protein Pax-8 = Paired box protein Pax-8 (Homo sapiens, UniProt Q06710); experiment: PAX8 transcriptional activity inhibition in RMG-I – RMG-I cells, luciferase, cherry-pick, dose response (AID 687027); format: functional, cell-based;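 further: luciferase reporter driven by Pax8 target thyroperoxidase promoter measured by SteadyGlo luminescence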
Sequence of Paired box protein Pax-8 (Q06710 whole entry): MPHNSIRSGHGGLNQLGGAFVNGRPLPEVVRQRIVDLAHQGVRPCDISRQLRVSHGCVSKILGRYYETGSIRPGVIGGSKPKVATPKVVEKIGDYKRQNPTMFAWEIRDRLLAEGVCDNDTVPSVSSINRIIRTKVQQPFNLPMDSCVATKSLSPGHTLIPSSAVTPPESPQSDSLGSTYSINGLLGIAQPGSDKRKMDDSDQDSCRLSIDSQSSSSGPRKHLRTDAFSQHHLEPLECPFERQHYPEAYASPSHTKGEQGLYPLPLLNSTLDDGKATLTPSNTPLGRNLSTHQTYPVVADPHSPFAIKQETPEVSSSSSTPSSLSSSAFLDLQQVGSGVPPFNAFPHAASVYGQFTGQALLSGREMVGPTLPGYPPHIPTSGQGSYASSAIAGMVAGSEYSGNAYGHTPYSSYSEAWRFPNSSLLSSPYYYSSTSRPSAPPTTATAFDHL

Sequence of Glucose-6-phosphate 1-dehydrogenase (P11413 whole entry): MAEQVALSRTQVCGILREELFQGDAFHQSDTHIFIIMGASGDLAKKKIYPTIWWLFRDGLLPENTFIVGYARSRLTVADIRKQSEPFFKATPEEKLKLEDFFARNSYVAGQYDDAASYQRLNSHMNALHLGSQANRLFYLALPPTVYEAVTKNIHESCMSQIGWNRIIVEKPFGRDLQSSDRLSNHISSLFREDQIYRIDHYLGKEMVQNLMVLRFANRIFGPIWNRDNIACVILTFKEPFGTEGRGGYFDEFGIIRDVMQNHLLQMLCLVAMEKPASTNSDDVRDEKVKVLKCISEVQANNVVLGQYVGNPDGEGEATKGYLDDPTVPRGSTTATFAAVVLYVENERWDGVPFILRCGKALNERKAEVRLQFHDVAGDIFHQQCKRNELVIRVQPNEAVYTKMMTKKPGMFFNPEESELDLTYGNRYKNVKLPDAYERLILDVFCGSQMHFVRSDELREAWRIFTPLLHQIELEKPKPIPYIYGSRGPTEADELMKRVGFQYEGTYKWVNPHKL

Structure (SMILES): O=C(O)CSc1cc(NS(=O)(=O)c2ccc(Cl)cc2)c2ccccc2c1O
- IC50 [1]: 29.9 µM (inactive)
- EC50 (Protein RecA): 2.39 µM (active)

Structure (SMILES): COc1ccccc1N1C(=O)Cc2ccccc2C1=O
- IC50 [2]: 10.6 µM (active)
- EC50 (Protein RecA): 9.77 µM (active)

Structure (SMILES): Oc1ccccc1/C=C/c1noc(-c2ccccc2O)n1
- IC50 [2]: > 100 µM (inactive)
- EC50 [3]: > 67.6 µM (inactive)

Structure (SMILES): Cc1cccc(N=Nc2ccc(N(C)C)cc2)c1
- IC50 [2]: 4.4 µM (active)

Structure (SMILES): Cc1nn(-c2ccccc2)c(Cl)c1CN(C(=O)CCl)c1ccc(Cl)cc1
- EC50 (Protein RecA): 0.355 µM (active)
- AC50 (Paired box protein Pax-8): 3.19 µM (active)
